Counter-ions that a name gives are not always drawn. Like-named read-outs stand apart in the source and are kept apart here.
Tested on: murine neural precursor cells (neurosphere cultures)
Assay: HTS of LOPAC library against secondary neurosphere cultures, MTT proliferation assay at 3 μM, day 7 (z score, P value)
Assay type: cell-based, mouse
[1] = LOPAC library screen, 3 μM, MTT, secondary neurosphere cultures, day 7
[2] = LOPAC primary screen, neurosphere MTT proliferation, 3 μM, day 7
[3] = yes/no: significantly inhibited neurosphere proliferation (P<0.01) in the primary screen
[4] = yes/no: significantly inhibited neurosphere proliferation in primary screen
[5] = LOPAC library screen, 3 μM, MTT, neurosphere cultures
[6] = yes = significantly inhibited neurosphere proliferation (P<0.01) in the primary screen
[7] = LOPAC screen, neurosphere MTT proliferation, 3 μM, day 7
[8] = yes/no: significantly inhibited neurosphere proliferation (P<0.01) in primary screen
[9] = LOPAC library screen at 3 μM, secondary neurosphere cultures, MTT
[10] = primary LOPAC screen, 3 μM, MTT, neurosphere proliferation
[11] = yes/no: significantly inhibited neurosphere proliferation in the primary screen

Row | SMILES | Z score [2] | Z Score | Activity [4] | other results
1 | CC(C)[C@H](CO)Nc1nc(Nc2cccc(Cl)c2)c2ncn(C(C)C)c2n1 [Purvalanol A] | −11.234 | – | – | Z Score [1]: −11.23; Activity [3]: yes
2 | Cl.Cl.NCCCCN [Putrescine dihydrochloride] | – | −0.7689 | – | Activity: no; Z score: −0.769
3 | NC(=O)c1cnccn1 [Pyrazinecarboxamide] | −1.617 | – | no | Z Score [1]: −1.617
4 | CN(C)C(=O)Oc1ccc[n+](C)c1 [Pyridostigmine bromide] | 0.231 | 0.2311 | no | –
5 | COc1ccc(CN(CCN(C)C)c2ccccn2)cc1 [Pyrilamine maleate] | 0.989 | – | – | Z Score [5]: 0.9893; Activity [6]: no
6 | Oc1ccccc1O [Pyrocatechol] | – | −2.053 | – | Z score [7]: −2.053; Activity [8]: no
7 | C[C@@H]1C(=O)NC2=Nc3cccc(Cl)c3CN21 [Quazinone] | 0.205 | – | no | Z Score [5]: 0.2046
8 | O.O.O=c1c(O)c(-c2ccc(O)c(O)c2)oc2cc(O)cc(O)c12 [Quercetin dihydrate] | −2.302 | −2.302 | no | –
9 | CCN(CC)CCCC(C)Nc1c2ccc(Cl)cc2nc2ccc(OC)cc12 (stereo not drawn) [Quinacrine dihydrochloride] | −9.712 | – | – | Activity: yes; Z Score [1]: −9.712
10 | CCCN1CCC[C@@H]2Cc3nc(N)ncc3C[C@H]21 [Quinelorane dihydrochloride] | −1.567 | – | no | –
11 | CCCN1CCC[C@@H]2Cc3nc(N)ncc3C[C@H]21.Cl.Cl [Quinelorane dihydroechloride] | – | −1.567 | – | –
12 | C=C[C@H]1C[N@@]2CC[C@H]1C[C@@H]2[C@@H](O)c1ccnc2ccc(OC)cc12 [Quinidine sulfate] | −1.930 | – | no | Z Score [1]: −1.93
13 | C=C[C@H]1C[N@@]2CC[C@H]1C[C@H]2[C@H](O)c1ccnc2ccc(OC)cc12 [Quinine sulfate] | −0.269 | – | no | Z Score [9]: −0.2686
14 | O=C(O)c1cccnc1C(=O)O [Quinolinic acid] | – | – | – | Z Score (168 h, 3 µM): −2.419; Z score (168 h, 3 µM): −2.419; Activity [6]: yes
15 | O=C(O)/C=C\C(=O)O.O=[N+]([O-])c1ccc2nc(N3CCNCC3)ccc2c1 [Quipazine, 6-nitro-, maleate] | 0.978 | – | no | Z Score [5]: 0.9782
16 | CN1CCN(c2ccc3ccccc3n2)CC1.O=C(O)/C=C\C(=O)O.O=C(O)/C=C\C(=O)O [Quipazine, N-methyl-, dimaleate] | −0.325 | – | no | Z Score [9]: −0.3254
17 | CCCN1CCC[C@H](c2cccc(O)c2)C1.Cl [R(+)-3PPP hydrochloride] | −2.213 | −2.213 | no | –
18 | Br.C=CCN1CCc2c(cc(O)c(O)c2Br)[C@@H](c2ccccc2)C1 [R(+)-6-Bromo-APB hydrobromide] | – | 1.532 | – | Z score [7]: 1.532; Activity [8]: no
19 | CC(C)NC[C@@H](O)COc1ccc(CC(N)=O)cc1 [R(+)-Atenolol] | – | – | – | Z Score (LOPAC library screen at 3 μM, MTT, secondary neurosphere cultures, screened in singlets): 3.764; Z score [10]: 3.764; Activity [11]: no
20 | C[C@@]1(C2CCCC2)Cc2cc(OCC(=O)O)c(Cl)c(Cl)c2C1=O [R(+)-IAA-94] | −0.010 | −0.01015 | – | Activity [8]: no
21 | CCN(CC)C(=O)NC1C=C2c3cccc4[nH]cc(c34)C[C@H]2N(C)C1.O=C(O)/C=C\C(=O)O (stereo partly drawn) [R(+)-Lisuride hydrogen maleate] | −1.041 | −1.041 | – | –
22 | CN1CCc2cc(Cl)c(O)cc2[C@@H](c2ccccc2)C1.Cl [R(+)-SCH-23390 hydrochloride] | – | – | – | Z Score [5]: 1.375; Z score [7]: 1.375; Activity [8]: no
23 | CCN(CC)C(=O)N[C@H]1C[C@@H]2c3cccc4[nH]cc(c34)C[C@H]2N(C)C1 [R(+)-Terguride] | – | – | – | Z Score [1]: −2.004; Z score [10]: −2.004; Activity [11]: no
24 | CCCN(CCC)[C@@H]1CCc2c(F)ccc(O)c2C1.Cl [R(+)-UH-301 hydrochloride] | −2.517 | −2.517 | – | Activity [3]: yes
25 | CN1CCc2cc(O)cc3c2[C@H]1Cc1ccc(O)c(O)c1-3 [R(−)-2,10,11-Trihydroxyaporphine] | −3.309 | – | – | Activity [3]: yes
26 | COc1cc2c(cc1OC)[C@@H](c1ccccc1)CN(C)CC2.O=C(O)/C=C\C(=O)O [R(−)-SCH-12679 maleate] | – | 1.6092 | – | Z score [10]: 1.609; Activity [11]: no
27 | Br.CCCN(CCC)[C@@H]1CCc2ccc(O)cc2C1 [R-(+)-7-Hydroxy-DPAT hydrobromide] | −2.590 | −2.59 | – | Activity [3]: yes

Row | SMILES | Z score [2] | Z Score | Activity [4] | other results
28 | Br.CCCN(CCC)[C@@H]1CCc2cccc(O)c2C1 [R-(+)-8-Hydroxy-DPAT hydrobromide] | −0.692 | – | – | Z Score [9]: −0.6916; Activity [3]: no
29 | CCCCCC(O)c1cccc(OCc2ccc3ccccc3n2)c1 (stereo not drawn) [REV 5901] | – | – | no | Z Score (168 h, 3 µM): −1.184; Z score (168 h, 3 µM): −1.184
30 | COC1(C2=NCCN2)COc2ccccc2O1.Cl (stereo not drawn) [RX 821002 hydrochloride] | 0.249 | 0.249 | no | –
31 | O=C(c1ccc(OCCN2CCCCC2)cc1)c1c(-c2ccc(O)cc2)sc2cc(O)ccc12 [Raloxifene hydrochloride] | −9.222 | – | – | Z Score [1]: −9.222; Activity [6]: yes
32 | CNC(=C[N+](=O)[O-])NCCSCc1ccc(CN(C)C)o1 [Ranitidine hydrochloride] | 0.023 | – | no | Z Score [5]: 0.02275
33 | COc1ccccc1OCC(O)CN1CCN(CC(=O)Nc2c(C)cccc2C)CC1 (stereo not drawn) [Ranolazine dihydrochloride] | −2.104 | – | no | Z Score [1]: −2.104
34 | COC(=O)[C@H]1[C@H]2C[C@H]3c4[nH]c5ccccc5c4CCN3C[C@H]2CC[C@@H]1O [Rauwolscine hydrochloride] | – | – | no | Z Score (168 h, 3 µM): −1.747; Z score (168 h, 3 µM): −1.747
35 | COC(=O)[C@H]1[C@H]2C[C@@H]3c4[nH]c5cc(OC)ccc5c4CCN3C[C@H]2C[C@@H](OC(=O)c2cc(OC)c(OC)c(OC)c2)[C@@H]1OC [Reserpine] | −1.023 | – | – | Z Score [9]: −1.023; Activity [6]: no
36 | Oc1ccc(C=Cc2cc(O)cc(O)c2)cc1 [Resveratrol] | −0.230 | – | no | Z Score [9]: −0.2295
37 | CC1=C(/C=C/C(C)=C/C=C/C(C)=C/C(=O)O)C(C)(C)CCC1 [Retinoic acid] | −0.866 | – | – | Z Score [9]: −0.8657
38 | NC(=O)c1ncn([C@@H]2O[C@H](CO)[C@@H](O)[C@H]2O)n1 [Ribavirin] | – | – | – | Activity: no
39 | C1COC(NC(C2CC2)C2CC2)=N1 [Rilmenidine hemifumarate] | 0.526 | – | no | Z Score [5]: 0.5264
40 | Nc1nc2ccc(OC(F)(F)F)cc2s1 [Riluzole] | −1.033 | – | – | Z Score [9]: −1.033
41 | Cc1nc2n(c(=O)c1CCN1CCC(c3noc4cc(F)ccc34)CC1)CCCC2 [Risperidone] | 1.694 | 1.694 | no | –
42 | Cc1nc2sccn2c(=O)c1CCN1CCC(=C(c2ccc(F)cc2)c2ccc(F)cc2)CC1 [Ritanserin] | −0.696 | – | no | Z Score [9]: −0.6957
43 | CC(NCCc1ccc(O)cc1)C(O)c1ccc(O)cc1 (stereo not drawn) [Ritodrine hydrochloride] | −2.332 | – | – | Z Score [1]: −2.332; Activity [3]: yes
44 | CNc1cc(NS(=O)(=O)c2ccc(N)cc2)nc(NC)n1.Cl.Cl [Ro 04-6790 dihydrochloride] | 0.343 | 0.3428 | no | –
45 | NC(=O)c1ccc(OCC(O)CN2CC=C(c3ccc(F)cc3)CC2)cc1 (stereo not drawn) [Ro 8-4304] | −2.188 | −2.188 | no | –
46 | Cl.NCCNC(=O)c1ccc(Cl)cc1 [Ro 16-6491 hydrochloride] | −2.181 | −2.181 | no | –
47 | O=C(c1cc(O)c(O)c([N+](=O)[O-])c1)c1ccccc1F [Ro 41-0960] | −0.360 | −0.36 | no | –
48 | Cl.NCCNC(=O)c1ncsc1-c1cccc(F)c1 [Ro 41-1049 hydrochloride] | 1.328 | 1.328 | no | –
49 | COc1ccc(C2CNC(=O)C2)cc1OC1CCCC1 (stereo not drawn) [Rolipram] | −2.091 | – | no | Z Score [1]: −2.091
50 | CCCN(CCC)CCc1cccc2c1CC(=O)N2 [Ropinirole hydrochloride] | – | – | – | Activity: no; Z Score (168 h, 3 µM): −0.2552; Z score (168 h, 3 µM): −0.255
51 | CC[C@H](CO)Nc1nc(NCc2ccccc2)c2ncn(C(C)C)c2n1 [Roscovitine] | – | 0.00273 | – | Activity: no; Z score: 0.003
52 | C=C(C)[C@H]1Cc2c(ccc3c2O[C@@H]2COc4cc(OC)c(OC)cc4[C@@H]2C3=O)O1 [Rotenone] | −11.274 | −11.27 | – | Activity [6]: yes
53 | CC(=O)c1c(O)c(C)c(O)c(Cc2c(O)c3c(c(C(=O)/C=C/c4ccccc4)c2O)OC(C)(C)C=C3)c1O [Rottlerin] | 0.304 | 0.3042 | no | –

From patent US8058243B2, “Method for treating a brain cancer with ifenprodil” (HSC Research and Development Limited Partnership, priority 2006, dated 2011)
